Like-named read-outs stand apart in the source and are kept apart here.
Columns and labels:
[1] = molecular target: T1, VIM-2 (Pseudomonas aeruginosa, UniProt Q5U7L7); assay: biochemical
Experimental: The pET24a-VIM-2 plasmid was transformed into competent BL21 (DE3) E. coli cells. The cells were plated onto an LB-agar plate with kanamycin (25 μg/mL) and incubated overnight at 37° C. A single colony was used to inoculate 50 mL of LB, containing 25 μg/mL kanamycin, and the culture was shaken overnight at 37° C. From the overnight culture, 10 mL were transferred to 4×IL LB medium containing 25 μg/mL kanamycin. The cultures were grown at 37° C. until an optical density (OD600 nm) of 0.6-0.8 was reached, at which point protein production was induced with IPTG (0.5 mM) and ZnCl2 (100 μM). The temperature was reduced to 20° C., and the cells were shaken for an additional 18 h. The cultures were harvested by centrifugation (8 Kxg) for 10 min at 4° C. The resulting pellets were re-suspended in 25 mL of 50 mM HEPES, pH 7.5, containing 500 mM NaCl (buffer B). The cells were lysed with three passes through a French Press. The lysate was centrifuged (15 Kxg) for 30 min at 4° C. The supernatant was dialyzed against 2 L of 50 mM HEPES, pH 7.5 (buffer A), for 4 h. Buffer A was used to equilibrate a 25 mL Q-Sepharose column using an FPLC. The sample was loaded onto the column, and proteins were eluted with a linear gradient 0-500 mM NaCl with buffer B. Fractions containing VIM-2, determined by SDS-PAGE, were pooled and concentrated to 2-3 mL in an Amicon ultraconcentrator equipped YM-10 membrane. […] Fractions containing pure VIM-2 were pooled, and metal analysis was performed.
The enzyme inhibition constant (Ki) was derived from initial-velocity measurements by nonlinear regression using competitive-inhibition enzyme kinetics using Graphpad Prism 6.

[2] = in vitro; details: human
Experimental: (§5) Human embryonic kidney cell line (HEK293) were grown in 100 mm cell culture petri dishes at 37° C. with 5% CO2 in Dulbecco's Modified Eagle's Medium high glucose medium containing 1% penicillin/streptomycin (Sigma-Aldrich, St. Louis, MO) and supplemented with 5% of fetal bovine serum (Thermo Fisher Scientific Gibco®). Cells under 10 passages and the 80% of monitored cell petri dish were used for experiment.
(§6) Cytotoxicity of tested compounds were estimated using the MTT method. Cell viability were measured by counting viable cells by using the 3 (4,5dimethylthiazol-2-yl)-2,5-diphenyltetrazolium bromide (MTT) (Sigma-Aldrich, St. Louis, MO) colorimetric dye-reduction assay. […] Following 24 h incubation and attachment, the cells were incubated for 72 h with different concentrations of inhibitors (0.01˜100 μM) in culture media without FBS. The Control cells were supplemented only with a medium without containing FBS. All samples in 96 well plate were incubated at 37° C. at an atmosphere of 5% CO2. […] The absorbance was measured using a micro-plate reader at wavelength 590 nm. The CC50 were obtained based on a comparison with untreated cells by fitting the data to a sigmoidal dose-response equation using Graphpad Prism 6.

[3] = molecular target: T1, VIM-2; assay: biochemical; details: for VIM-2 percentage inhibition: 50 μM compound, 5 nM MBL, 10 μM nitrocefin, 30 mins
Experimental: The pET24a-VIM-2 plasmid was transformed into competent BL21 (DE3) E. coli cells. The cells were plated onto an LB-agar plate with kanamycin (25 μg/mL) and incubated overnight at 37° C. A single colony was used to inoculate 50 mL of LB, containing 25 μg/mL kanamycin, and the culture was shaken overnight at 37° C. From the overnight culture, 10 mL were transferred to 4×IL LB medium containing 25 μg/mL kanamycin. The cultures were grown at 37° C. until an optical density (OD600 nm) of 0.6-0.8 was reached, at which point protein production was induced with IPTG (0.5 mM) and ZnCl2 (100 μM). The temperature was reduced to 20° C., and the cells were shaken for an additional 18 h. The cultures were harvested by centrifugation (8 Kxg) for 10 min at 4° C. The resulting pellets were re-suspended in 25 mL of 50 mM HEPES, pH 7.5, containing 500 mM NaCl (buffer B). The cells were lysed with three passes through a French Press. The lysate was centrifuged (15 Kxg) for 30 min at 4° C. The supernatant was dialyzed against 2 L of 50 mM HEPES, pH 7.5 (buffer A), for 4 h. Buffer A was used to equilibrate a 25 mL Q-Sepharose column using an FPLC. The sample was loaded onto the column, and proteins were eluted with a linear gradient 0-500 mM NaCl with buffer B. Fractions containing VIM-2, determined by SDS-PAGE, were pooled and concentrated to 2-3 mL in an Amicon ultraconcentrator equipped YM-10 membrane. Further purification was conducted with a Sephacryl S-200 gel filtration column using 50 mM HEPES, pH 7.5, containing 150 mM NaCl. Fractions containing pure VIM-2 were pooled, and metal analysis was performed.
(§1) To identify potential MBL inhibitors, the relative change in the formation of hydrolyzed nitrocefin between treated and untreated MBL was determined as percentage inhibition. 5 nM of each BML was pre-incubated for 10 mins with 50 μM of each compound, followed by the addition of 10 μM nitrocefin.
(§2) Each MBL was incubated with 50 μM of each compound, followed by the addition of nitrocefin. The relative change in absorbance is reported as percentage inhibition.

[4] = cited from earlier work
[5] = molecular target: T1, VIM-2; details: after incubation with inhibitor and dialysis
Experimental: VIM-2 was diluted to 6 μM with 50 mM HEPES, pH 7.5, containing 150 mM NaCl. The diluted protein solution was used to make several 5 mL aliquots. […] One aliquot contained one molar equivalent of inhibitor (6 μM), with respect to enzyme concentration, and the second aliquot contained two molar equivalents (12 μM). One aliquot contained no inhibitor. Each aliquot was then incubated for 4 h at 4° C. Following incubation, each aliquot was dialyzed versus 500 mL of 50 mM HEPES, pH 7.5, for 4 h at 4° C. The aliquots were analyzed using ICP-AES, as previously described REF. The emission wavelengths used were 213.856, 238.892, 259.940, 231.604, and 324.754 nm for Zn, Co, Fe, Ni, and Cu, respectively.
To further address the mode of action of 8-hydroxyquinolines, equilibrium dialysis experiments were conducted. […] EDTA, a well-known metal scavenger, inhibits all MBLs through a chelation mechanism (Bush, K.; Jacoby, G. A. Updated Functional Classification of beta-Lactamases. Antimicrobial Agents and Chemotherapy 2010, 54, 969-976).

[6] = molecular target: T2, NDM-1 (Klebsiella pneumoniae, UniProt C7C422); assay: biochemical; details: read-out: NDM-1 percentage inhibition, 50 μM compound, 5 nM MBL, 10 μM nitrocefin, 30 mins
T2 sequence (C7C422 whole entry, looked up, species assumed): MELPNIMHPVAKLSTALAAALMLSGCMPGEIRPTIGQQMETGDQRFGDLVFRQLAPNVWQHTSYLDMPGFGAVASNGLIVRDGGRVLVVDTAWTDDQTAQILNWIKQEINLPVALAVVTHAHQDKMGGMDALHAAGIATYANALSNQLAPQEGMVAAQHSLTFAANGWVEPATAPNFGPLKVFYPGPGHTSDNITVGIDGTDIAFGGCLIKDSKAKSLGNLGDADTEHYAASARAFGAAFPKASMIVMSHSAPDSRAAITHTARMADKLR
Experimental: BL21 (DE3) E. coli cells containing the pET26b-ndm-1 plasmid were used to inoculate a 50 mL LB starter culture containing kanamycin (25 μg/mL). The culture was grown overnight at 37° C. The starter culture was then used to inoculate 4×1 L LB containing kanamycin (25 μg/mL). These flasks were incubated at 37° C. until culture reached an optical density of (OD600) of 0.6 to 0.8. The incubator was then set to 22° C. and the cultures were shaken for 30 min to allow them to cool. ZnCl2 ([…]) and IPTG (0.5 mM) were then added to the cultures and they were grown for 18 h at 22° C. The cells were then harvested using centrifugation (8000×g) for 10 min. The pellet was resuspended with 25 mL 50 mM HEPES, pH 7.5 containing 500 mM NaCl (Buffer B). Lysis was performed with three passes through a French Press. The lysate was centrifuged for 30 min (15,000×g) at 4° C. The supernatant was then dialyzed versus 2 L 50 mM HEPES, pH 7.5 (Buffer C) for 4 h. An FPLC was used to equilibrate a Q-Sepharose column using buffer C using a flowrate of 2.0 mL/min for 1.5 h. The lysate was then loaded onto the column and eluted with a linear NaCl gradient from 0-500 mM. Fractions containing NDM-1 were identified with SDS-PAGE. These fractions were pooled and concentrated to 2-3 mL in an Amicon ultracentrifugation concentrating unit with a YM-10 membrane. The resulting protein mixture was then loaded onto a Sephacryl S-200 gel filtration column run with 50 mM HEPES, pH 7.5 containing 150 mM NaCl (Buffer A). SDS-PAGE was used to identify fractions containing pure protein.
as §1, §2

[7] = system: VIM-2 expressing E. coli; format: cell-based, Escherichia coli; details: for VIM-2 expressing E. coli Amox (+) relative percentage growth compared to untreated cells: with 50 μM amoxicillin
Experimental: (§3) The optical density of the cell cultured was monitored at 600 nm (OD600 nm). The cells were cultured on 0.8 g/100 ml nutrient agar plate at pH 7.0 and 37° C. […] An overnight culture of the bacterial strain was sub-cultured to 0.06 OD600 nm into the NB medium and was then seeded at max 200 μl into the wells of a 96 well microtiter plate. Samples were then incubated at 37° C. and shaken at 200 rpm for 18 h. The absorbance was measured on an ELIZA plate reader and analyzed with the Gen5™ software suite (version 1.08).
(§4) • The data are reported as relative percentage growth compared to untreated cells.

[8] = system: E. coli; format: cell-based, Escherichia coli
Experimental: as §3, §4

[9] = system: HEK293 cells; assay: Human cell cytotoxicity assay (MTT); details: 72 h
Experimental: as §5, §6

[10] = system: VIM-2 expressing E. coli; format: cell-based, Escherichia coli
Experimental: as §3
The bacterial culture was prepared as described above. The diluted subculture bacteria in NB medium were set up to a final volume of 200 μl in clear flat-bottom 96-well plates containing ten different concentrations of each tested compound ranging from 0.001 μM to 50 μM. The mixing of the bacterial culture plate were then incubated in a 37° C. […] shaken incubator at 200 rpm for 18 h before measuring their optical density at 600 nm.

[11] = molecular target: T2, NDM-1
Experimental: Nitrocefin (Cayman, CAS 41906-86-9) was used as the chromogenic substrate for all biochemical assays. […] The rate of product formation was monitored based on the λmax=486 nm absorbance taken at 10 s intervals for 30 mins. […] Velocity versus substrate concentration curves were fitted by nonlinear regression using Michaelis-Menten Enzyme kinetics with Graphpad Prism 6.

[12] = system: VIM-2; details: reported previously, cited from earlier work
[13] = 5 nM MBL, 10 μM nitrocefin, read-out: VIM-2 IC50
[14] = nitrocefin substrate, competitive-inhibition fit, read-out: VIM-2 Ki
[15] = in the presence of 50 μM amoxicillin

Q: What does the source list for O=C(O)c1cccc(=S)n1O [Compound 51, 1-hydroxypyridine-2 (1H)-thione-6-carboxylic acid, reference compound]?
A: IC50 [1]: 0.31 µM; Ki [1]: 0.02 µM; CC50 at 72 h [2]: 92 µM

Q: Which VIM-2 percentage inhibition [3] does the source give for Oc1cccc2cccnc12 [Compound 31, 8-Hydroxyquinoline] here?
A: 98%

Q: And the inhibition at 50 µM ([3]; read-out: VIM-2 percentage inhibition, 50 μM compound, 5 nM MBL, 10 μM nitrocefin, 30 mins)?
A: > 96%

Q: What about the IC50 [1] of the same molecule?
A: 3.6 µM

Q: What about the Ki [1] of the same molecule?
A: 0.67 µM

Q: And the “pKa, hydroxyl group” value ([4]; hydroxyl group)?
A: 9.89

Q: What about the “pKa, nitrogen atom” value ([4]; nitrogen atom) of the same molecule?
A: 5.13

Q: And the “metal content of VIM-2 / removal of Zn(II) from the active site” value [5]?
A: do not inhibit VIM-2 by removal of Zn(II)

Q: With C[C@H](CS)C(=O)N1CCC[C@H]1C(=O)O [Compound 1, L-captopril, reference compound] as the molecule, how does the inhibition at 50 µM [6] read?
A: 93%

Q: And the “metal content of VIM-2 / removal of Zn(II) from the active site” value [5]?
A: relatively unaffected

Q: For O=C(O)[C@H]1/C(=C/CO)O[C@@H]2CC(=O)N21 [Clav, Clavulanate], which “VIM-2 expressing E. coli Amox (+) relative percentage growth compared to untreated cells” value ([7]; single dose) is on record?
A: 57%

Q: What about the “VIM-2 expressing E. coli Amox (−) relative percentage growth compared to untreated cells” value ([7]; single dose, without amoxicillin) of the same molecule?
A: 93%

Q: What about the “E. coli Amox (+) relative percentage growth compared to untreated cells” value ([8]; wild type E. coli, single dose, with 50 μM amoxicillin) of the same molecule?
A: 2.9%

Q: What about the “E. coli Amox (−) relative percentage growth compared to untreated cells” value ([8]; wild type E. coli, single dose, without amoxicillin) of the same molecule?
A: 86%

Q: For O=C(O)CN(CCN(CC(=O)O)CC(=O)O)CC(=O)O [EDTA], which “Zn(II) removed from VIM-2” value [5] is on record?
A: 1 equivalent of Zn(II)

Q: What does the source list for O=[N+]([O-])c1ccc(O)c2ncccc12 [Compound 41]?
A: CC50 [9]: 7.8 µM; VIM-2 percentage inhibition [3]: 86%; IC50 [1, 13]: 0.67 µM; Ki [1, 14]: 0.25 µM; EC50 ([10]; 50 uM amoxicillin): 0.07 µM; EC50 [10, 15]: 0.07 µM

Q: What does the source list for Oc1c(I)cc(Cl)c2cccnc12 [Compound 48, Clioquinol, reference compound]?
A: synergistic growth inhibition ([7]; VIM-2 expressing E. coli, compound with amoxicillin): over 96%; CC50 [9]: 18.3 µM; VIM-2 percentage inhibition [3]: 93%; IC50 [1, 13]: 5.1 µM; Ki [1, 14]: 1.1 µM; metal content of VIM-2 / removal of Zn(II) from the active site [5]: do not inhibit VIM-2 by removal of Zn(II); EC50 [10, 15]: 0.94 µM

Q: For CC1(C)S[C@@H]2[C@H](NC(=O)[C@H](N)c3ccc(O)cc3)C(=O)N2[C@H]1C(=O)O [Amox, amoxicillin], which “VIM-2 expressing E. coli Amox (+) relative percentage growth compared to untreated cells” value ([7]; single dose) is on record?
A: 77%

Q: And the “E. coli Amox (+) relative percentage growth compared to untreated cells” value [8]?
A: 3.6%

Q: And the “growth inhibition of wild type E. coli” value [8]?
A: over 96%

Q: Which results are given for O=C(Cc1cccs1)N[C@@H]1C(=O)N2C(C(=O)O)=C(/C=C/c3ccc([N+](=O)[O-])cc3[N+](=O)[O-])CS[C@H]12 [nitrocefin, Nitrocefin]?
A: kcat, hydrolysis of nitrocefin by NDM-1 [11]: 25 s⁻¹; Km ([11]; read-out: Km, hydrolysis of nitrocefin by NDM-1): 2.2 µM; kcat, hydrolysis of nitrocefin by VIM-2 [12]: 212 s⁻¹; Km ([12]; read-out: Km, hydrolysis of nitrocefin by VIM-2): 23 µM
